Our source for the Activity values is ChEMBL document CHEMBL1155711, “Bidentatoside I, a new triterpene saponin from Achyranthes bidentata” (J Nat Prod, 2001).

Each structure is given as a SMILES string. Activity calls are given as the source filed them. The rule behind the calls is not given here.

This experiment has as its system HT-29. Description: Potentiation of cisplatin-induced cytotoxicity in human HT-29 cells. It counts as functional, cell-based.

For the molecule `CC1(C)CC[C@]2(C(=O)O[C@@H]3O[C@H](CO)[C@@H](O)[C@H](O)[C@H]3O)CC[C@]3(C)C(=CC[C@@H]4[C@@]5(C)CC[C@H](O[C@@H]6O[C@H](C(=O)O)[C@@H](O)[C@@H]7OC(O)(C(=O)O)C(OCC(=O)O)O[C@@H]67)C(C)(C)[C@@H]5CC[C@]43C)[C@@H]2C1` (stereo partly specified), the outcome was inactive.
